Measured values from a melting point compilation (Tetko et al.; mined from patent text by program, amines drawn as free bases though some values may be those of a salt).

Row | SMILES | melting point
1 | O=C(Nc1cccc(S(=O)(=O)c2ccccn2)c1)C(O)(C(F)(F)F)C(F)(F)F | 264 to 267 °C
2 | CSCc1cc(C(C)=O)c(O)cc1OCCCCCCC#N | 78 °C
3 | Nc1cc(C(c2cc(F)ccc2F)S(=O)(=O)c2ccc(F)cc2)c(Cl)cn1 (configuration not stated) | 157 to 159 °C
4 | Cc1ccccc1-c1ccc(C(=O)N2Cc3ccc(C(=O)NCCc4ccc(Cl)cc4)n3Cc3ccccc32)cc1C | 169 to 171 °C
5 | CCOc1cc2c(cc1OCC)-c1c(C#N)sc(=O)n1CC2 | 172 to 174 °C
6 | O=C1CCC(=O)C(c2ccccc2)N1 (configuration not stated) | 160 to 164 °C
7 | C=C(C)C(=O)OCCCc1ccc(-c2ccc(-c3ccc(OC(=O)C(=C)C)cc3F)c(F)c2)cc1 | 67 °C
8 | Cn1c(=O)c(Oc2ccc(F)cc2F)cc2cnc(Cl)cc21 | 168 to 170 °C
9 | COCCNC(=O)c1c(O)c2ccccc2n(C)c1=N | 208 to 210 °C
10 | CC#CCOc1ccc(OCC(=O)OCC)cc1 | 100 to 105 °C
11 | COc1ccc2ccccc2c1OP(=O)(O)O | 171 °C
12 | CC(=O)COc1cc(C)c(Br)c(C)c1Cc1ccc(C(C)C)cc1 | 93 to 94 °C
13 | Nc1cn(C2CCN(c3c(F)c(N)c4c(=O)c(C(=O)O)cn(C5CC5)c4c3F)C2)nn1 (configuration not stated) | 210 to 213 °C
14 | OCCc1ccc(Nc2ncc3c(n2)-c2ccccc2C(c2ccc(Cl)c(Cl)c2)C3)cc1 (configuration not stated) | 94 to 96 °C
15 | C#CCOc1cc(-c2ncc(C(F)(F)F)c(C)c2Cl)c(F)cc1Cl | 95 to 98 °C
16 | CC1(C)C(C=C(Cl)Cl)C1(C)C(=O)O (configuration not stated) | 137 to 138 °C
17 | NS(=O)(=O)c1ccc(Cl)c(NC(=O)c2cnn3c(C(F)(F)F)cc(-c4ccc(C(F)(F)F)cc4)nc23)c1 | 300 °C
18 | COc1ccc2c(c1)C1=C(SCC3(CCN(CC(O)Cc4ccccc4)CC3)O1)C(=O)C2=O (configuration not stated) | 106 °C
19 | CCC(CO)Nc1nc(NCc2ccccc2N)c2ncn(C(C)C)c2n1 (racemic) | 149 to 151 °C
20 | CC(C)n1cc(-c2nc(C#N)c(N)nc2-c2ccccc2F)ccc1=O | 211 °C
21 | COC(=O)/C(=N/N(C)C)c1ccc(OCCOc2ccc3ccccc3c2)cc1 | 109 to 111 °C
22 | CCOC(=O)c1c(Nc2cccc3ccccc23)n[nH]c1C | 199 to 202 °C
23 | CCN(CC)c1ccc(NC(=O)c2ccc(C)c(Nc3nccc(-c4cccnc4)n3)c2)cc1C(F)(F)F | 128 to 131 °C
24 | O=C(O)CCCOc1cc(Cn2cc(C3c4ccccc4C=Cc4ccccc43)c(=S)[nH]c2=O)cc(OCC(=O)O)c1 | 104 to 109 °C
25 | CCOC(=O)COc1cnc(S)nc1O | 157 to 160 °C

Row | SMILES | melting point
26 | CC(C)CNc1ccc(Cl)cc1C(O)c1ccccc1OCc1ccccc1 (configuration not stated) | 79 to 80 °C
27 | O=C(O)c1ccc(-c2ccc3cc(O)c(C45CC6CC(CC(C6)C4)C5)cc3c2)cc1O | 261 to 264 °C
28 | O=c1[nH]c2ccc3c(c2[nH]c1=O)CNCC3 | 294 to 297 °C
29 | CCc1ccc2oc(C(=O)Nc3ccc(-c4ccc(S(=O)(=O)NC(C(=O)O)C(C)C)cc4)cc3)c(C)c2c1O (configuration not stated) | 122 to 125 °C
30 | CC(C)(NC(=O)CCn1ccnc1)c1ccc(Cl)cc1 | 154 to 155 °C
31 | CNC(=O)Cn1c(-c2cccc(Br)c2)nc2cccnc21 | 199 to 201 °C
32 | Cc1cccc2c1nc(COc1ccc(Cl)cc1)n2CCC(C)C(=O)NNCc1ccccc1 (racemic) | 145 to 146 °C
33 | CCNC(=O)c1sc(Cl)cc1[Si](C)(C)C | 105 to 108 °C
34 | Cc1ccc(S(=O)(=O)OCC2Cc3cc(Cl)cc(-c4ccccc4)c3O2)cc1 (configuration not stated) | 127 to 130 °C
35 | CC(C)(C)OC(=O)N1C(=O)CCC1c1ccc(Br)cc1 (configuration not stated) | 122 to 124 °C
36 | Cc1nc(N2CCN(CC3CCCCC3)C2=O)sc1C(=O)NCc1cccnc1 | 134 to 136 °C
37 | O=c1[nH]c2cc(Cl)ccc2n1C1CCN(Cc2cncc(-c3ccccc3)c2)CC1 | 229 to 231 °C
38 | COc1ccc(-c2cc(=S)[nH]nc2-c2ccc(OC)c(F)c2)cc1 | 222 to 223 °C
39 | COC(=O)CSC(c1ccccc1OC)c1ccccc1OC | 65 to 67 °C
40 | CCCCCCCCCCCCCCCCCCS(=O)(=O)N[C@H]1CCCNC(=O)C1 | 99 to 100 °C
41 | COC(=O)[C@H](Cc1ccc(N)cc1)NC(=O)OC(C)(C)C | 86 to 89 °C
42 | COC(=O)c1cc(NC(=O)c2ccnc(C)c2)c2cc(Cc3ccc(F)cc3)cnc2c1O | 229 to 230 °C
43 | CN(C)C(=O)Oc1ccc(Cl)c2c1C(=O)c1ccccc1C2=O | 182 to 184 °C
44 | CC(C)(C)OC(=O)Nc1cc(N2CCSCC2)c(I)cc1N | 125 to 127 °C
45 | NS(=O)(=O)Oc1ccc(Cl)cc1 | 103 to 104 °C
46 | CCCn1cc(C(=O)Nc2nccs2)c2ccc(Cl)cc21 | 175 to 176 °C
47 | O=C(N[C@H](Cc1ccccc1)C(=O)O)OCc1ccc2oc(-c3ccccc3)cc2c1 | 173 to 174 °C
48 | NC1=NC(c2ccc(F)cc2)CO1 (configuration not stated) | 116 to 121 °C
49 | COC=C(C(=O)OC)N(C)c1nccc(-c2ccccc2)n1 | 123 to 125 °C
50 | CCOC(=O)c1c(C(C)(C)O)nc(SC)n1Cc1ccc(-c2ccccc2-c2nnn[nH]2)cc1 | 125 to 127 °C

Row | SMILES | melting point
51 | CCOC(=O)C1C=CC(c2ccccc2)n2c(=O)n(CO)c(=O)n21 (configuration not stated) | 129 to 133 °C
52 | COCOc1cc(CCCOc2ncccc2CC(=O)O)n(Cc2ccc(Cl)cc2Cl)n1 | 101 to 102 °C
53 | CC1(C)OCC(COc2ccc(-c3ccc4cc(C(=O)O)ccc4c3)cc2C23CC4CC(CC(C4)C2)C3)O1 (configuration not stated) | 287 °C
54 | COC(=O)c1cc(O)nn1Cc1ccc(Cl)cc1Cl | 222 to 223 °C
55 | Cc1cscc1-c1cccc2c1ccn2-c1ccnc(NC2CCC(C(=O)N3CCC(O)CC3)CC2)n1 (configuration not stated) | 168 to 188 °C
56 | OC1CN(CCC#Cc2ccccc2)CCC1c1cccc(C(F)(F)F)c1 (configuration not stated) | 77 to 79 °C
57 | COc1ccc(C2CCN(C(=O)Nc3ccc4cc(CN5C(C)(C)CCCC5(C)C)ccc4c3)CC2)cc1 | 164 to 166 °C
58 | COC(=O)[C@H](CSCc1ccccc1)NC(=O)Nc1n[nH]c(=S)s1 | 169 to 172 °C
59 | Cn1nnc(-c2ccc(C=Cc3ccc(-c4nc5ccccc5o4)cc3)cc2)c1-c1nc2ccccc2o1 | 246 to 249 °C
60 | CCCCN(CCCC)c1ccc(C(=O)c2ccccc2C(=O)O)cc1 | 171 to 172 °C
61 | Cn1nc(NC(=O)c2ccccc2)c2c(=O)n3c(nc21)SCC3 | 271 to 272 °C
62 | Nc1ncccc1OCc1ccccc1Br | 99 to 100 °C
63 | CC(=O)N1N=C(c2ccc([N+](=O)[O-])cc2)c2cc3c(cc2CC1C)OCO3 (configuration not stated) | 140 to 142 °C
64 | CCC(CC)c1cccc2[nH]c(=O)n(C)c12 | 130 to 132 °C
65 | O=C(O)CCSc1ccc(CNC(=O)C2Cc3ccccc3N2S(=O)(=O)c2ccc(-c3cccc(C(F)(F)F)c3)cc2)cc1 (configuration not stated) | 77 to 81 °C
66 | COc1ccnc(CO)c1OC | 87 to 89 °C
67 | Cc1ncccc1C(C#N)N1CCN(C(=O)Cc2ccc(OCc3ccc4ccccc4n3)cc2)CC1 (configuration not stated) | 64 to 68 °C
68 | Cc1ccc(C(C)Oc2cnn(C(C)(C)C)c(=O)c2Cl)cc1 (configuration not stated) | 104 to 106 °C
69 | COc1cccc([C@H]2O[C@H](CC(=O)Nc3cc(CCC(=O)O)ccc3C)C(=O)N(CC(C)(C)CO)c3ccc(Cl)cc32)c1OC | 154 to 155 °C
70 | COc1cc(OC)cc(-c2ncn(-c3cc(OC)c(OC)c(OC)c3)c2-c2ccc(N(C)C)cc2)c1 | 151 to 154 °C
71 | CC(=O)c1ccc(OCCCCOc2ccccc2)cc1 | 104 to 106 °C
72 | CC(c1cccc(O)c1)N(C)C (configuration not stated) | 85 to 86 °C
73 | CN(CC(O)C(N)C(=O)c1cccc(C(F)(F)F)c1)c1ccc(Cl)cc1 (configuration not stated) | 128 to 132 °C
74 | CC(C)(C)c1cc(C2(C)NC(=O)NC2=O)cc(C(C)(C)C)c1O (configuration not stated) | 260 °C
75 | CCOC(=O)/C=C/c1ccc2oc(Cc3nc(-c4ccccc4)oc3C)cc2c1 | 150 to 151 °C

Row | SMILES | melting point
76 | CCOP(=S)(OCC)ON=C1C=CC(=C(C#N)c2ccccc2C)S1 | 86 to 87 °C
77 | CC(=O)OCC[C@H](NC(=O)C(F)(F)F)C(=O)O | 134 to 136 °C
78 | CCOC(=O)C(C)Oc1ccc(N(C)c2nc(Cl)c3cc(Cl)ccc3n2)cc1 (configuration not stated) | > 250 °C
79 | CCOCC(=O)SSc1ccc([N+](=O)[O-])cc1C(Cl)(Cl)Cl | 89 °C
80 | Nc1nc(N)c(-c2cc(Cl)ccc2Cl)c(C(F)(F)F)n1 | 215 to 217 °C
81 | CCOC(=O)COc1ccc(SCc2cccc3nc(-c4ccc(C(F)(F)F)cc4)sc23)cc1C | 193 to 196 °C
82 | Cc1oc(-c2ccco2)nc1COc1ccc(COc2nn(-c3ccccc3)cc2C=O)cn1 | 122 to 123 °C
83 | CCn1c(C(=O)c2cc(C)cc(CCC#N)c2)c(C(C)C)c(=O)[nH]c1=O | 173 to 174 °C
84 | CCOC(Cc1ccc(OCCN2CCSc3ccccc32)cc1)C(=O)NCc1ccccc1 (configuration not stated) | 92 to 93 °C
85 | O=C(O)c1ccc(OCCCn2ccnc2)cc1 | 218 °C
86 | NC(=O)C1CCN(CC=Cc2ccccc2)CC1 | 190 to 192 °C
87 | COc1ccc(/C=C/c2c(Cl)cncc2Cl)c2c1OCCCO2 | 118 to 120 °C
88 | CCOC(=O)C(=O)c1ccc(OCCCOc2ccc(C(C)=O)c(O)c2)cc1 | 63 to 65 °C
89 | CCCC=C(c1ccccc1N1CCCCC1)C(C(N)=O)c1ccc(C(=O)OCC)cc1 (configuration not stated) | 94 to 97 °C
90 | Cc1oc(-c2ccccc2)nc1COc1ccc(COc2ccc(Br)cc2CC(=O)O)cc1 | 162 to 163 °C
91 | CN1CCN(c2ccc(F)cc2C=C2CCCN(c3ccc(F)c(F)c3)C2=O)CC1 | 168 to 170 °C
92 | NC(=O)c1c(F)cccc1[N+](=O)[O-] | 161 to 162 °C
93 | O=S(=O)(NS(=O)(=O)OCC(F)(F)F)OCC(F)(F)F | 55 to 58 °C
94 | O=C(NN1CCCCC1)c1nn(-c2ccc(Cl)cc2Cl)c2c1SCc1cc(Cl)ccc1-2 | 148 °C
95 | COc1cc2c3c(c1)nc(SCc1ccncc1)n3CCC2 | 99 to 101 °C
96 | CN(C(=O)c1ccc(Cl)cc1)c1ccccc1CCCC(C(=O)O)C(=O)O | 117 to 118 °C
97 | COc1ccc(Cn2c3ccc(Cl)cc3c3c(C(=O)Nc4c(Cl)cncc4Cl)ccc(OC)c32)cc1 | 257 to 258 °C
